Data on 14 molecules can be found in ChEMBL document CHEMBL3044968, “N-palmitoylethanolamide derivatives: synthesis and studies on anticonvulsant and antidepressant activities” (Med Chem Res, 2011).

Active and inactive are the calls of the source. No cut-off for these calls is given here.

For series [1], the system named is Mus musculus. Put plainly: Antidepressant activity in Mus musculus Kunming (mouse) assessed as reduction in duration of immobility at 10 mg/kg, ip measured after 30 min by forced swim test. The format is functional. Conditions: 0.5 h, route intraperitoneal.
The subject of series [2] is Mus musculus. Briefly: Neurotoxicity in Mus musculus Kunming (mouse) at 300 mg/kg, ip measured after 30 min by rotarod test. The class given is toxicity, organism-based. Conditions: in vivo, 0.5 h. Details: dose 300 mg/kg, route intraperitoneal. For orientation: The rotarod test checks motor coordination on a turning rod.
The subject of series [3] is Mus musculus. Put plainly: Neurotoxicity in Mus musculus Kunming (mouse) at 100 mg/kg, ip measured after 30 min by rotarod test. Conditions: in vivo, 0.5 h. Details: dose 100 mg/kg, route intraperitoneal. The class given is toxicity, organism-based.
Series [4] deals with Mus musculus. Briefly: Anticonvulsant activity in Mus musculus Kunming (mouse) assessed as protection against maximal electroshock-induced seizure at 300 mg/kg, ip measured after 4 hr. The class given is functional, organism-based. Details: dose 300 mg/kg. (In general: The maximal electroshock test induces tonic seizures with an electrical stimulus.)
Series [5] concerns Mus musculus. Briefly: Neurotoxicity in Mus musculus Kunming (mouse) at 300 mg/kg, ip measured after 4 hr by rotarod test. The class given is toxicity, organism-based. More on the design: dose 300 mg/kg, route intraperitoneal. Conditions: in vivo.
The test system of series [6] is Mus musculus. Put plainly: Neurotoxicity in Mus musculus Kunming (mouse) at 100 mg/kg, ip measured after 4 hr by rotarod test. Conditions: in vivo. The format is toxicity, organism-based. Details: dose 100 mg/kg, route intraperitoneal.
Series [7] relates to Mus musculus. Put plainly: Anticonvulsant activity in Mus musculus Kunming (mouse) assessed as protection against maximal electroshock-induced seizure at 100 mg/kg, ip measured after 30 min. The class given is functional, organism-based. More on the design: dose 100 mg/kg.
The subject of series [8] is Mus musculus. Put plainly: Neurotoxicity in Mus musculus Kunming (mouse) at 30 mg/kg, ip measured after 30 min by rotarod test. More on the design: dose 30 mg/kg, route intraperitoneal. The class given is toxicity, organism-based. Conditions: in vivo, 0.5 h.
The subject of series [9] is Mus musculus. Put plainly: Anticonvulsant activity in Mus musculus Kunming (mouse) assessed as protection against maximal electroshock-induced seizure at 300 mg/kg, ip measured after 30 min. The class given is functional, organism-based. More on the design: dose 300 mg/kg.
The subject of series [10] is Mus musculus. Briefly: Neurotoxicity in Mus musculus Kunming (mouse) at 30 mg/kg, ip measured after 4 hr by rotarod test. The format is toxicity, organism-based. Details: dose 30 mg/kg, route intraperitoneal. Conditions: in vivo.
Series [11] concerns Mus musculus. Put plainly: Anticonvulsant activity in Mus musculus Kunming (mouse) assessed as protection against maximal electroshock-induced seizure at 30 mg/kg, ip measured after 4 hr. The class given is functional, organism-based. Details: dose 30 mg/kg.
Series [12] deals with Mus musculus. Put plainly: Anticonvulsant activity in Mus musculus Kunming (mouse) assessed as protection against maximal electroshock-induced seizure at 100 mg/kg, ip measured after 4 hr. The class given is functional, organism-based. More on the design: dose 100 mg/kg.
The subject of series [13] is Mus musculus. Briefly: Anticonvulsant activity in Mus musculus Kunming (mouse) assessed as protection against maximal electroshock-induced seizure at 30 mg/kg, ip measured after 30 min. Details: dose 30 mg/kg. The class given is functional, organism-based.

One may read the inhibition in vivo as the drop in the measured response relative to a control, in per cent. Take `CNCCC(Oc1ccc(C(F)(F)F)cc1)c1ccccc1` (stereo not given) [FLUOXETINE]: in the series with Mus musculus [1], the inhibition in vivo at 10 mg/kg worked out at 39.4%.
In the case of `CCCCCCCCCCCCCCCC(=O)NCCO` [PALMIDROL], the Activity entry in the series on Mus musculus [2], in the series with Mus musculus [3], in the series with Mus musculus [5], with Mus musculus [6], in the series with Mus musculus [8] and in the series on Mus musculus [10] was “Non-toxic” each time. For the same molecule, the outcome with Mus musculus [4], with Mus musculus [11] and in the series with Mus musculus [12] was inactive. Also, the result with Mus musculus [7] and with Mus musculus [9] was Active. Also, the inhibition in vivo at 10 mg/kg in the series with Mus musculus [1] came to 6.25%.
On to `CCCCCCCCCCCCCCCCCC(=O)NCCO` [N-(2-HYDROXYETHYL)STEARAMIDE], for which the Activity result in the series on Mus musculus [2], in the series on Mus musculus [3], in the series on Mus musculus [5], in the series with Mus musculus [6], with Mus musculus [8] and in the series with Mus musculus [10] was “Non-toxic” throughout. In addition, the outcome with Mus musculus [4], with Mus musculus [11] and in the series on Mus musculus [12] was inactive. The result in the series on Mus musculus [7], in the series with Mus musculus [9] and with Mus musculus [13] was Active. Also, the inhibition in vivo at 10 mg/kg with Mus musculus [1] was determined as 5.65%.
`CCCCCCCCCCCCCCCC(=O)NCCCO` [N-(3-HYDROXYPROPYL)PALMITAMIDE]: the Activity entry in the series on Mus musculus [2], in the series with Mus musculus [3], in the series on Mus musculus [5], in the series with Mus musculus [6], with Mus musculus [8] and with Mus musculus [10] was “Non-toxic” each time. Also, the outcome in the series with Mus musculus [4], with Mus musculus [7], with Mus musculus [9], in the series with Mus musculus [11], with Mus musculus [12] and in the series with Mus musculus [13] was inactive. The inhibition in vivo at 10 mg/kg in the series with Mus musculus [1] turned out to be 22.2%.
For `O=C(/C=C/c1ccccc1)NCCO` [IDROCILAMIDE], the Activity entry in the series with Mus musculus [2] is “Toxic”; in the series with Mus musculus [3], “Non-toxic”; in the series with Mus musculus [5] it was “Non-toxic”; in the series on Mus musculus [6], “Non-toxic”; in the series with Mus musculus [8] it was “Non-toxic”; in the series with Mus musculus [10], “Non-toxic”. Also, the outcome in the series on Mus musculus [4], in the series with Mus musculus [11] and in the series with Mus musculus [12] was inactive. For the same molecule, the result in the series on Mus musculus [7], with Mus musculus [9] and in the series on Mus musculus [13] was Active. Besides, the inhibition in vivo at 10 mg/kg in the series on Mus musculus [1] came out at 25.9%.
As for `CCCCCCCCCCCCCCCCCC(=O)NCCCO`, the Activity result in the series with Mus musculus [2], with Mus musculus [3], in the series with Mus musculus [5], with Mus musculus [6], in the series with Mus musculus [8] and in the series on Mus musculus [10] was “Non-toxic” in each case. Moreover, the result in the series on Mus musculus [4], in the series on Mus musculus [7], in the series on Mus musculus [9], in the series with Mus musculus [11], in the series on Mus musculus [12] and in the series on Mus musculus [13] was inactive. Moreover, the inhibition in vivo at 10 mg/kg in the series on Mus musculus [1] turned out to be 14.1%.
`CCCCCCCCCCCCCCCC(=O)N(CC)CC` [HEXADECANOIC ACID DIETHYLAMIDE]: the Activity result in the series on Mus musculus [2], with Mus musculus [3], with Mus musculus [5], with Mus musculus [6], with Mus musculus [8] and in the series on Mus musculus [10] was “Non-toxic” each time. Besides, the result in the series with Mus musculus [4], in the series on Mus musculus [7], in the series on Mus musculus [9], with Mus musculus [11], with Mus musculus [12] and in the series with Mus musculus [13] was inactive. For the same molecule, the inhibition in vivo at 10 mg/kg with Mus musculus [1] was 17.3%.
`CCCCCCCCCCCCCCCCCC(=O)N(CC)CC` [N,N-DIETHYLSTEARAMIDE]: the Activity result in the series on Mus musculus [2], in the series on Mus musculus [3], in the series on Mus musculus [5], with Mus musculus [6], in the series with Mus musculus [8] and in the series with Mus musculus [10] was “Non-toxic” throughout. Moreover, the outcome with Mus musculus [4], in the series on Mus musculus [7], in the series on Mus musculus [9], in the series with Mus musculus [11], in the series on Mus musculus [12] and in the series on Mus musculus [13] was inactive. Moreover, the inhibition in vivo at 10 mg/kg in the series on Mus musculus [1] was 18.4%.
For `CCCCCCCCCCCCCCCC(=O)N(CCO)CCO`, the Activity result in the series with Mus musculus [2], in the series on Mus musculus [3], in the series with Mus musculus [5], with Mus musculus [6], with Mus musculus [8] and in the series on Mus musculus [10] was “Non-toxic” in each case. The outcome in the series with Mus musculus [4], in the series on Mus musculus [7], with Mus musculus [9], with Mus musculus [11], in the series with Mus musculus [12] and with Mus musculus [13] was inactive. Moreover, in the series on Mus musculus [1], the inhibition in vivo at 10 mg/kg was 26.3%.
On to `O=C(/C=C/c1ccccc1)NCCCO`, for which the Activity entry is “Toxic” in the series on Mus musculus [2]; “Non-toxic” in the series on Mus musculus [3]; “Non-toxic” in the series on Mus musculus [5]; “Non-toxic” in the series on Mus musculus [6]; “Non-toxic” in the series on Mus musculus [8]; “Non-toxic” in the series with Mus musculus [10]. Further, the result with Mus musculus [4], in the series with Mus musculus [7], in the series on Mus musculus [11], with Mus musculus [12] and with Mus musculus [13] was inactive. The inhibition in vivo at 10 mg/kg with Mus musculus [1] was found to be 23.4%.
As for `CN(CCO)C(=O)/C=C/c1ccccc1`, the Activity result in the series on Mus musculus [2] is “Toxic”; in the series with Mus musculus [3] it was “Non-toxic”; in the series on Mus musculus [5] it was “Non-toxic”; in the series with Mus musculus [6], “Non-toxic”; in the series with Mus musculus [8] it was “Non-toxic”; with Mus musculus [10], “Non-toxic”. The inhibition in vivo at 10 mg/kg with Mus musculus [1] is 8.41%. Besides, the result in the series on Mus musculus [9] was Active. The result with Mus musculus [11], in the series on Mus musculus [12] and in the series on Mus musculus [13] was inactive.
With `CCN(CC)C(=O)/C=C/c1ccccc1` [N,N-DIETHYLCINNAMAMIDE], the Activity entry in the series with Mus musculus [2] is reported as “Toxic”; in the series with Mus musculus [3], “Non-toxic”; in the series with Mus musculus [5], “Non-toxic”; with Mus musculus [6], “Non-toxic”; in the series on Mus musculus [8], “Non-toxic”; in the series with Mus musculus [10], “Non-toxic”. Further, in the series on Mus musculus [1], the inhibition in vivo at 10 mg/kg amounted to 18.2%. For the same molecule, the outcome in the series on Mus musculus [9] was Active. For the same molecule, the result with Mus musculus [11] and in the series with Mus musculus [13] was inactive.
Turning to `CCCCCCCCCCCCCCCCCC(=O)N(C)CCO`, the Activity result in the series with Mus musculus [2], in the series with Mus musculus [3], with Mus musculus [5], with Mus musculus [6], with Mus musculus [8] and in the series on Mus musculus [10] was “Non-toxic” throughout. The result in the series on Mus musculus [4], in the series on Mus musculus [7], in the series with Mus musculus [9], in the series with Mus musculus [11], with Mus musculus [12] and in the series with Mus musculus [13] was inactive. The inhibition in vivo at 10 mg/kg in the series with Mus musculus [1] stood at 22%.
On to `CN(C)C(=O)/C=C/c1ccccc1` [N,N-DIMETHYLCINNAMAMIDE], for which the Activity result is reported as “Toxic” with Mus musculus [2]; “Non-toxic” with Mus musculus [3]; “Non-toxic” in the series on Mus musculus [5]; “Non-toxic” in the series on Mus musculus [6]; “Non-toxic” with Mus musculus [8]; “Non-toxic” in the series on Mus musculus [10]. For the same molecule, the inhibition in vivo at 10 mg/kg with Mus musculus [1] worked out at 20%. Moreover, the outcome in the series on Mus musculus [9] was Active. For the same molecule, the outcome in the series with Mus musculus [11] and in the series with Mus musculus [13] was inactive.
